{
  "source": "patent US6849601B1",
  "about": "(priority 1998, dated 2005)",
  "key": {"α2-adrenoceptors": {"tested_on": "α2-adrenoceptors", "parameters": "species or system rat"}, "[1]": {"tested_on": "bisected rat prostatic vas deferens"}},
  "note": "Where a name gives a salt, the structure may show the parent alone.",
  "data": [
    {"molecule": "NC[C@H](O)c1ccc(O)c(O)c1", "note": "[noradrenaline, (−)-noradrenaline bitartrate]", "values": [
      {"measurement": "−log IC50 of noradrenaline for inhibition of the response to electrical stimulation", "setting": "α2-adrenoceptors", "value": "5.96±0.052"}
    ]},
    {"molecule": "COc1cc2nc(N3CCN(C(=O)c4ccco4)CC3)nc(N)c2cc1OC", "note": "[prazosin, prazosin hydrochloride]", "values": [
      {"measurement": "effect on second phase of the contraction", "setting": "[1]", "value": "inhibited"}
    ]},
    {"molecule": "Cc1ccc(C(=O)Nc2ccc(S(=O)(=O)O)c3cc(S(=O)(=O)O)cc(S(=O)(=O)O)c23)cc1NC(=O)c1cccc(NC(=O)Nc2cccc(C(=O)Nc3cc(C(=O)Nc4ccc(S(=O)(=O)O)c5cc(S(=O)(=O)O)cc(S(=O)(=O)O)c45)ccc3C)c2)c1", "note": "[suramin]", "values": [
      {"measurement": "effect on initial phase of the contraction", "setting": "[1]; 0.3 mM", "value": "sensitive"}
    ]},
    {"molecule": "NC1=N[C@H](O)[C@H]2[C@H]3O[C@]4(O)O[C@@H]([C@@H](O)[C@@]2(N1)[C@@H]4O)[C@]3(O)CO", "note": "[tetrodotoxin]", "values": [
      {"measurement": "effect on contractions evoked by field stimulation", "setting": "[1]", "value": "abolished"}
    ]},
    {"molecule": "CCLIPACRRNHKKFC [truncated ρ-TIA]", "values": [
      {"measurement": "selective β1-adrenoceptor antagonist activity", "setting": "β1-adrenoceptor", "value": "inactive"}
    ]}
  ]
}
